The values below are quoted from earlier work in patent US20120289492A1, “METHODS OF TREATING MITOCHONDRIAL DISORDERS USING METALLOPORPHYRINS” (priority 2009, published 2012).

Molecules are shown by their SMILES.

For one data set, the system named is CD-1 Sod2−/− mice. The following applies: cited from earlier work.
The conditions of data set [1]: safety studies in mice, monkeys and rats; phase 1 in amyotrophic lateral sclerosis patients; cited from earlier work.

In the case of `[Cl-].[Mn+3].[O-]c1ccccc1C=NCCN=Cc1ccccc1[O-]` [EUK8], in the data set on CD-1 Sod2−/− mice, the neurodegeneration entry was “ameliorated” and the spongiform encephalopathy entry is listed as “ameliorated”. On to `CCN1C=CN(CC)C1=C1C2=NC(=C(c3n(CC)cc[n+]3CC)C3=NC(=C(c4n(CC)cc[n+]4CC)c4ccc([n-]4)C(c4n(CC)cc[n+]4CC)=C4C=CC1=N4)C=C3)C=C2.[Cl-].[Cl-].[Cl-].[Cl-].[Cl-].[Mn+3]` [AEOL10150], for which the serious adverse events result in data set [1] is “No serious adverse events have been found”.

Take `O=C(O)c1ccc(/C2=C3\C=CC(=N3)/C(c3ccc(C(=O)O)cc3)=c3/cc/c4[n]3[Mn]([Cl])[n]3c2ccc3/C(c2ccc(C(=O)O)cc2)=C2/C=CC(=N2)\C=4c2ccc(C(=O)O)cc2)cc1` [MnTBAP, manganese tetrakis 5, 10, 15, 20 . . . porphyrin]: in the data set on CD-1 Sod2−/− mice, the cardiomyopathy entry is recorded as “ameliorated” and the neurodegeneration entry is on record as “but not neurodegeneration”. `COc1cccc(C=NCCN=Cc2cccc(OC)c2[O-])c1[O-].[Cl-].[Mn+3]` [EUK134]: in the data set with CD-1 Sod2−/− mice, the neurodegeneration result was “ameliorated” and the spongiform encephalopathy result is reported as “ameliorated”.
